Results as given in patent US12286418B2, “Compounds and methods for treating or preventing bacterial infections” (priority 2019, dated 2025).

Columns and labels:
OXA-48 [1] = biological target: T1, OXA-48 (Klebsiella pneumoniae, UniProt Q6XEC0); assay: OXA-48 inhibition assay using nitrocefin as reporter; type: biochemical; set-up: His-tag (N, cleaved yes); made in house; host or cells: E. coli BL21(DE3), pET28a
Description: Nitrocefin, a chromogenic β-lactam substrate, was used as a reporter in all inhibition assays with the various OXA enzymes and various compounds. Nitrocefin is not stable in aqueous solution long-term. For these assays, nitrocefin stocks were prepared in DMSO, stored at −20° C. and used within 2 weeks of dissolving. To avoid freeze-thawing, fresh stocks were always used. The Km of nitrocefin was determined prior to inhibition assays by performing steady state kinetics. Assays were performed using a DU800 spectrophotometer at room temperature in 50 mM HEPES pH 7.5, 15 mM NaHCO3, and 0.02% tween 20 buffer. Hydrolyzed nitrocefin was detected at 482 nm. For a single experiment, a series of at least 5 nitrocefin concentrations were tested against the given enzyme in duplicate and the initial velocities were measured and fit to the Michaelis-Menten equation. Experiments were repeated twice, and error reported is the standard error of the mean.
Compounds were tested for inhibition of a given OXA enzyme from hydrolyzing nitrocefin using a Tecan plate reader. […] A control with no compound was included in each run. For each compound concentration, the velocity of nitrocefin hydrolysis was determined at 482 nm and fit to the Morrison equation. […] The average Ki of separate experiments, each of which consisted of duplicate runs, is reported and error was quantified as the standard deviation.
The activity of these derivatives was assessed using inhibition assays with purified OXA-48. Compounds were tested for the ability to inhibit OXA-48 from hydrolyzing nitrocefin, a chromogenic β-lactam substrate routinely used in β-lactamase inhibition assays. Nitrocefin contains a conjugated ring system that is readily hydrolyzed and produces a visible color shift from yellow to red upon hydrolysis (O'Callaghan, et al., 1972, Antimicrob. Agents Chemother. 1:283-288). The rate of nitrocefin hydrolysis in the presence of a constant amount of OXA-48 and increasing concentrations of a given compound of interest was monitored at 482 nm. These rates were plotted against compound concentration to determine the inhibition constant (Ki) against OXA-48. […] SPR was performed using 6×-His-OXA-48 enzyme that was amine-coupled on a Ni-NTA Chip. Meropenem, which covalently binds and inhibits OXA-48, was used as a positive control.

OXA-48 [2] = biological target: T1, OXA-48; assay: Surface plasmon resonance binding to immobilized 6x-His-OXA-48; set-up: His-tag (N, cleaved yes); made in house; host or cells: E. coli BL21(DE3), pET28a; settings: SPR
Description: 6×-His-OXA-48 was capture/amine-coupled on a Ni-NTA Chip at a density of ˜5000 RU. Running buffer was 10 mM HEPES pH 7.4, 150 NaCl, 50 mM NaHCO3, 0.005% Tween-20, 2% DMSO. Concentration gradients of each compound were created from 0-15 μM using OneStep Injections in at least triplicates for meropenem and CDD-97.
Synthon-derivatives were created, without DNA tags, based on high OXA-48 enrichment and minimal NTC enrichment. The activity of these derivatives was assessed using inhibition assays with purified OXA-48. Compounds were tested for the ability to inhibit OXA-48 from hydrolyzing nitrocefin, a chromogenic β-lactam substrate routinely used in β-lactamase inhibition assays. Nitrocefin contains a conjugated ring system that is readily hydrolyzed and produces a visible color shift from yellow to red upon hydrolysis (O'Callaghan, et al., 1972, Antimicrob. Agents Chemother. 1:283-288). The rate of nitrocefin hydrolysis in the presence of a constant amount of OXA-48 and increasing concentrations of a given compound of interest was monitored at 482 nm. These rates were plotted against compound concentration to determine the inhibition constant (Ki) against OXA-48. Compounds with promising activity were also assessed for binding using surface plasmon resonance (SPR). SPR was performed using 6×-His-OXA-48 enzyme that was amine-coupled on a Ni-NTA Chip. Meropenem, which covalently binds and inhibits OXA-48, was used as a positive control.

T1 sequence (Q6XEC0 23-265, looked up): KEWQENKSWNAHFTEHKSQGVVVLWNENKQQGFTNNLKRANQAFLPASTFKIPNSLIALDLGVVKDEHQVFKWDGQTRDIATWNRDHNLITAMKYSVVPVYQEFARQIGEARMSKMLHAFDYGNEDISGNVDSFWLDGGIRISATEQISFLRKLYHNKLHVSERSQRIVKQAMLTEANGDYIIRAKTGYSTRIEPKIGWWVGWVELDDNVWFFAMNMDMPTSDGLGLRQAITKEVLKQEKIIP

CCOc1ccccc1N1CCN(c2ncnc(N3CCC(C(=O)O)CC3)n2)CC1 [CDD-97, 1-(4-(4-(2-ethoxyphenyl)piperazin-1-yl)-1,3,5-triazin-2-yl)piperidine-4-carboxylic acid]
potency/activity against OXA-48 in words (OXA-48 [1]; purified OXA-48, compared with CDD-97 where a derivative): sub-micromolar Ki
Ki (OXA-48 [1]; purified OXA-48, nitrocefin hydrolysis, Morrison fit): 0.53 ± 0.08 µM
KD fold lower (weaker) than that of Meropenem (OXA-48 [2]; OXA-48): ~3 fold
Kd (OXA-48 [2]; immobilized His-OXA-48): 1.2 ± 0.004 µM
